We go through one compound from publication PMC10709440, “High-throughput ligand profile characterization in novel cell lines expressing seven heterologous insect olfactory receptors for the detection of volatile plant biomarkers” (Scientific Reports, 2023).

In one experiment the target is T1, Drosophila OR13a (Drosophila melanogaster, UniProt Q9VXL0).
T1 construct: expressed in transfected cells
T1 sequence (Q9VXL0 1-418): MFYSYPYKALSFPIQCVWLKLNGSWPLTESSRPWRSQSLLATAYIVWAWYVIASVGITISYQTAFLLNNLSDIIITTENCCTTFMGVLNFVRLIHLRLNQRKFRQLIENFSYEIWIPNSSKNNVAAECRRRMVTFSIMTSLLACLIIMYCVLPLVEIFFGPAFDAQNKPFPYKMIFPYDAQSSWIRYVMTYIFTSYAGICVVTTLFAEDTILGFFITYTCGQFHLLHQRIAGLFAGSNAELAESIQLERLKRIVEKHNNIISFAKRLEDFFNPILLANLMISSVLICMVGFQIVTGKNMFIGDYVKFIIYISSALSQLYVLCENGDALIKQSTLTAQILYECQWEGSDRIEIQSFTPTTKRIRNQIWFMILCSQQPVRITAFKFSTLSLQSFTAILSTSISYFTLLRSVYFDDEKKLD
T1 sequence (Q9VNB5 1-486 partner): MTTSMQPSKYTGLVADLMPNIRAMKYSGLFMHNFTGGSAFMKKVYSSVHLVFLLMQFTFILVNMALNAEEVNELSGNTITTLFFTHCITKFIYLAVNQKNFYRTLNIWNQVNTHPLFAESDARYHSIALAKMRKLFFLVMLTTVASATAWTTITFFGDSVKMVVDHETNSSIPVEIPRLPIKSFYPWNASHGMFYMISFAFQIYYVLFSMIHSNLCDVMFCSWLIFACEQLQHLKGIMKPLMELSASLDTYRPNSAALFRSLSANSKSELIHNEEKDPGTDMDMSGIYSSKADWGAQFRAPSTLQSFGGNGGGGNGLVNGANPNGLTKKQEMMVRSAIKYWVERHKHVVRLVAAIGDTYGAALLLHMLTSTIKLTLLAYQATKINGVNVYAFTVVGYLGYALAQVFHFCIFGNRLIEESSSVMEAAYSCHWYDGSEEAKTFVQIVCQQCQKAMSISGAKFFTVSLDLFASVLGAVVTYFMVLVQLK
In words: cell-based. Details: GCaMP6 calcium fluorescence in stable HEK293 OR+ORCO lines; peak dF normalised to 50 uM VUAA1 (=1). Conditions: HEK293; relative to 50 uM VUAA1 response; below 0.05 set to 0; read-out: % activation. As to the method:
(§1) Twelve thousand to 18,000 cells were plated into each well of a black wall, transparent bottom 384-well microplate (Greiner) 48 h or 72 h before the measurements and were simultaneously treated with 1 μg/mL doxycycline. Typically, three columns were filled with one OR expressing cell line, each row was treated with the same compound (three technical replicates for each OR), and each responsive VOC-OR combination was measured at least three times on different days. The plate has 24 columns, thus we could record responses in up to eight different cell lines in each plate. On the day of the experiment, the growth medium was replaced with 20 µL assay buffer/well (140 mM NaCl, 5 mM KCl, 2 mM CaCl2, 1 mM MgCl2, 5 mM HEPES-Na, 20 mM glucose, pH 7.3, 340 mOsm). […] Baseline fluorescence (F0) was recorded for 5 s, after which 7 µL VOC buffer (140 mM NaCl, 5 mM KCl, 2 mM CaCl2, 1 mM MgCl2, 5 mM HEPES-Na, 31 mM glucose, 0.1% DMSO, pH 7.3, 340 mOsm) was injected into each well in one row and the fluorescence response was recorded for an additional 30 s, at a rate of one read/sec. VOC solutions (VOC buffer with 4× concentration of the final measured VOC concentration, 9 µL/well was injected) were measured on the same wells in a second round with the same protocol. Each individual concentration of a specific VOC sample was recorded in three wells for the same cell line on the same microplate. The raw data were exported in xls file format, F0 and FMAX values, and the fluorescence intensity changes (∆F) were calculated in Excel (Microsoft) (Supplementary file Data summary.xlsx) using the following equation: ΔF=FMAX-F0/F0 (see also Fig. 1C). On each plate, we recorded the response of each cell line to 50 µM VUAA1. The average of these ∆F values of each cell line were used to calculate the VUAA1-normalized values for the rest of the plate, by dividing VOC response ∆F values by the average VUAA1 response ∆F value of the corresponding OR cell line. Each VOC-OR combination was measured three times as tec The recorded FMAX, F0, ∆F, VUAA1-normalized ∆F values, as well as the OR name, the name of the tested sample, and the final concentration for each well were copied into supplementary file Data summary.xlsx, that was used to summarize all the plates recorded. Here, the averages of the measurements were calculated for each receptor-VOC-concentration combination. […] Each VOC was measured at 1, 10, and 100 µM final concentration on each receptor. VUAA1-normalized response was calculated as described in methods. Values are averages of at least three biological replicates for responsive combinations and two for the non-responsive combinations. The chemical structures of the strong and medium ligands are shown for each cell line. Heat map: white-green colors correspond to the lowest-highest values measured for each cell line.

The target in the next experiment is T2, Drosophila OR71a (Drosophila melanogaster, UniProt Q9VUK5).
T2 construct: expressed in transfected cells
T2 sequence (Q9VUK5 1-378): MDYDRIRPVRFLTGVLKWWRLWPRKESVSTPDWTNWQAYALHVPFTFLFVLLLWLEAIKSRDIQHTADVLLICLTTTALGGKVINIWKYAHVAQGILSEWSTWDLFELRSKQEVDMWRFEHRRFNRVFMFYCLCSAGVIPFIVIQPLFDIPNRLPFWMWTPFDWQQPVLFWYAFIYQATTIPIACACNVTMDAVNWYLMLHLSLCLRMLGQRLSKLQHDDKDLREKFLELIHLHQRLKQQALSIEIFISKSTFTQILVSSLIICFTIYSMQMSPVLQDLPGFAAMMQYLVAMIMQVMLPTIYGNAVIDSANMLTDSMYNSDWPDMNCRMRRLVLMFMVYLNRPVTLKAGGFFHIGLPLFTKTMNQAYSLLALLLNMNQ
T2 sequence (Q9VNB5 1-486 partner): T1 sequence (Q9VNB5 1-486 partner)
The experiment in a line: cell-based. Details: GCaMP6 calcium fluorescence in stable HEK293 OR+ORCO lines; peak dF normalised to 50 uM VUAA1 (=1). Particulars: HEK293; relative to 50 uM VUAA1 response; below 0.05 set to 0; read-out: % activation. How it is done: as §1

For the compound `CC/C=C/CCO` [e3-hexenol], at Drosophila OR13a, the activity at 1 µM stood at 0%, the activity at 10 µM came out at 0% and the activity at 100 µM turned out to be 7.11%. In addition, on Drosophila OR71a, the activity at 1 µM was determined as 0%, the activity at 10 µM came to 0% and the activity at 100 µM was 0%.
